# Test results as given in patent publication US11357847B2, “Modified HSV gD protein and vaccine containing same” (KM Biologics Co., Ltd., priority 2017, dated 2022).
# T1: HVEM (Homo sapiens, UniProt Q92956)
# T1 sequence (Q92956 39-202): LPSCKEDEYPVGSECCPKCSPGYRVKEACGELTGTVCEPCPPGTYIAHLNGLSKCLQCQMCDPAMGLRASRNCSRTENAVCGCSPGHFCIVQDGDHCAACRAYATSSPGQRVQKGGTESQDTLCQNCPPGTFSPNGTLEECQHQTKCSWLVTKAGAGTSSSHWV
# Experiments:
# [1] = test system: various anti-gD2 antibodies; assay: Reactivity of gD variants with anti-gD2 antibodies (competitive ELISA); assay type: binding, human; details: for Reactivity with anti-gD2 antibody 1 / Reactivity with anti-gD2 antibody 5 / Reactivity with anti-gD2 antibody 13 / Reactivity with anti-gD2 antibody 72 / Reactivity with anti-gD2 antibody 75 / Reactivity with anti-gD2 antibody 78 / Reactivity with anti-gD2 antibody 82: immobilized gD variant
# Source text: Each anti-gD2 monoclonal antibody and each gD variant were expressed using an Expi293 expression system.
# [2] = biological target: T1, HVEM; assay: Reactivity of HVEM with gD variants (competitive ELISA); assay type: binding; details: compared to the original gD1-315; FIG. 14
# Experimental: From the above discussion, it can be strongly inferred that each variant takes the structure in which FR1 is bound to the receptor binding region. The reactivity of HVEM with each variant was then measured by competitive ELISA.
# HVEM can bind gD for the first time when FR1 binds to the receptor binding region and takes a characteristic hairpin structure. […] FR3-deficient gD1-275v5-55 promoted FR1 binding and further HVEM binding over other gD1-315-based variants in which FR3 was present.
# [3] = test system: HSV-2 MS strain; assay: Mouse infection-prevention test of modified gD (genital herpes infection model); assay type: in vivo, BALB/c mice; design: key to Determination (vs gD1-315) / Determination# (vs gD1-315): ++: minimum effective dose based on the Significant difference test in three-fold common ratio relative to gD1-315(WT) of two or more doses stronger; +: those of one dose stronger; ±: those of an equivalent value
# In short: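 Female BALB/c mice immunized s.c. three times at 2-week intervals with gD antigen at 0.1–0.003 μg/mouse/time plus MPLA (10 μg) and CpG (1 μg), n=10. Depo-Provera 2 mg s.c. given, then 5×10^5 PFU HSV-2 MS intravaginally 2 weeks post-boost; survival over 21 days, Kaplan-Meier vs saline, scored relative to wild-type gD1-315.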
# [4] = Experiment 1, 0.003 μg/head/time
# [5] = Experiment 1, 0.01 μg/head/time
# [6] = Experiment 1, 0.03 μg/head/time
# [7] = Experiment 2, 0.003 μg/head/time
# [8] = Experiment 2, 0.01 μg/head/time
# [9] = Experiment 2, 0.03 μg/head/time
# [10] = Experiment 3, 0.003 μg/head/time
# [11] = Experiment 3, 0.01 μg/head/time
# [12] = Experiment 3, 0.03 μg/head/time
# [13] = Experiment 4, 0.003 μg/head/time
# [14] = Experiment 4, 0.01 μg/head/time
# [15] = Experiment 4, 0.03 μg/head/time
molecule,measurement,setting,value
"gD1-315: wild-type soluble gD ectodomain 1-315 of HSV-2 333 strain, SEQ ID NO: 1; positive control [reference compound]",Reactivity with anti-gD2 antibody 1,[1],+ ((+): 70% or more)
same,Reactivity with anti-gD2 antibody 5,[1],+ ((+): 70% or more)
same,Reactivity with anti-gD2 antibody 13,[1],+ ((+): 70% or more)
same,Reactivity with anti-gD2 antibody 72,[1],+ ((+): 70% or more)
same,Reactivity with anti-gD2 antibody 75,[1],+ ((+): 70% or more)
same,Reactivity with anti-gD2 antibody 78,[1],+ ((+): 70% or more)
same,Reactivity with anti-gD2 antibody 82,[1],+ ((+): 70% or more)
same,Reactivity with HVEM,[2],little reaction
same,Mean survival time,[3]; [4],6.5 days
same,Significant difference test (vs saline),[3]; [4],N.S.
same,Mean survival time,[3]; [5],7 days
same,Significant difference test (vs saline),[3]; [5],N.S.
same,Mean survival time,[3]; [6],>21 days
same,Significant difference test (vs saline),[3]; [6],*** (*** p < 0.001)
same,Mean survival time,"[3]; Experiment 1, 0.1 μg/head/time",>21 days
same,Significant difference test (vs saline),"[3]; Experiment 1, 0.1 μg/head/time",*** (*** p < 0.001)
same,Mean survival time,[3]; [7],7.5 days
same,Significant difference test (vs saline),[3]; [7],N.S.
same,Mean survival time,[3]; [8],7.5 days
same,Significant difference test (vs saline),[3]; [8],N.S.
same,Mean survival time,[3]; [9],>14.5 days
same,Significant difference test (vs saline),[3]; [9],N.S.
same,Mean survival time,"[3]; Experiment 2, 0.1 μg/head/time",>22 days
same,Significant difference test (vs saline),"[3]; Experiment 2, 0.1 μg/head/time",*** (*** p < 0.001)
same,Mean survival time,[3]; [10],6 days
same,Significant difference test (vs saline),[3]; [10],N.S.
same,Mean survival time,[3]; [11],8 days
same,Significant difference test (vs saline),[3]; [11],* (* 0.01 = < p < 0.05)
same,Mean survival time,[3]; [12],>21 days
same,Significant difference test (vs saline),[3]; [12],*** (*** p < 0.001)
same,Mean survival time,"[3]; Experiment 3, 0.1 μg/head/time",>21 days
same,Significant difference test (vs saline),"[3]; Experiment 3, 0.1 μg/head/time",*** (*** p < 0.001)
same,Mean survival time,[3]; [13],8 days
same,Significant difference test (vs saline),[3]; [13],N.S.
same,Mean survival time,[3]; [14],7.5 days
same,Significant difference test (vs saline),[3]; [14],N.S.
same,Mean survival time,[3]; [15],>16.5 days
same,Significant difference test (vs saline),[3]; [15],N.S.
same,Mean survival time,"[3]; Experiment 4, 0.1 μg/head/time",>21 days
same,Significant difference test (vs saline),"[3]; Experiment 4, 0.1 μg/head/time",*** (*** p < 0.001)
gD1-315v5: gD1-315 with glycochains at R186 (SC-A) and P50 (SC-F) (protein) KYALADPSLKMADPNRFRGKNLPVLDQLTDPPGVKRVYHIQPSLEDPFQNASIPITVYYAVLERACRSVLLHAPSEAPQIVRGASDEARKHTYNLTIAWYRMGDNCAIPITVMEYTECPYNKSLGVCPIRTQPRWSYYDSFSAVSEDNLGFLMHAPAFETAGTYLRLVKINDWTEITQFILEHRANASCKYALPLRIPPAACLTSKAYQQGVTVDSIGMLPRFIPENQRTVALYSLKIAGWHGPKPPYTSTLLPPELSDTTNATQPELVPEDPEDSALLEDPAGTVSSQIPPNWHIPSIQDVAPHHAPAAPSNPGHHHHHH,Relative reactivity with antibody No. 82 (gD1-315 wild-type set to 1),[1]; FIG. 13,substantially similar reactivity
same,Reactivity with anti-gD2 antibody 1,[1],+ ((+): 70% or more)
same,Reactivity with anti-gD2 antibody 5,[1],− ((−): less than 30%)
same,Reactivity with anti-gD2 antibody 13,[1],+ ((+): 70% or more)
same,Reactivity with anti-gD2 antibody 72,[1],± ((±): 30% or more and less than 70%)
same,Reactivity with anti-gD2 antibody 75,[1],− ((−): less than 30%)
same,Reactivity with anti-gD2 antibody 78,[1],− ((−): less than 30%)
same,Reactivity with anti-gD2 antibody 82,[1],+ ((+): 70% or more)
same,Reactivity with HVEM,[2],little reaction
same,Mean survival time,[3]; [4],6.5 days
same,Significant difference test (vs saline),[3]; [4],N.S.
same,Mean survival time,[3]; [5],>21 days
same,Significant difference test (vs saline),[3]; [5],*** (*** p < 0.001)
same,Mean survival time,[3]; [6],>21 days
same,Significant difference test (vs saline),[3]; [6],*** (*** p < 0.001)
same,Mean survival time,"[3]; Experiment 1, 0.1 μg/head/time",>21 days
same,Significant difference test (vs saline),"[3]; Experiment 1, 0.1 μg/head/time",*** (*** p < 0.001)
same,Determination (vs gD1-315),"[3]; Experiment 1, minimum effective dose relative to gD1-315(WT)",+
